Test results as given in PubChem BioAssay (NCI).
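Interpolation was linear, between the two tested concentrations surrounding the appropriate level; five concentrations were tested over 48 hours in 96-well plates. TGI marks complete inhibition of growth.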

Tests used:
Experiment in all cases: inhibition of tumour cell growth, NCI panel, 48 h
HCC-2998 colon = tested on: HCC-2998 colon
SW-620 colon = tested on: SW-620 colon
SF-268 CNS = tested on: SF-268 CNS
UO-31 renal = tested on: UO-31 renal
IGROV1 ovarian = tested on: IGROV1 ovarian
CAKI-1 renal = tested on: CAKI-1 renal
786-0 renal = tested on: 786-0 renal
M14 melanoma = tested on: M14 melanoma
BT-549 breast = tested on: BT-549 breast
SK-OV-3 ovarian = tested on: SK-OV-3 ovarian
MALME-3M melanoma = tested on: MALME-3M melanoma
NCI-H522 lung = tested on: NCI-H522 lung
SNB-19 CNS = tested on: SNB-19 CNS
RXF 393 renal = tested on: RXF 393 renal
OVCAR-5 ovarian = tested on: OVCAR-5 ovarian
EKVX NSCLC = tested on: EKVX NSCLC
KM12 colon = tested on: KM12 colon
TK-10 renal = tested on: TK-10 renal
UACC-257 melanoma = tested on: UACC-257 melanoma
OVCAR-3 ovarian = tested on: OVCAR-3 ovarian

SMILES | TGI (HCC-2998 colon) [µM] | TGI (SW-620 colon) [µM] | TGI (SF-268 CNS) [µM] | TGI (UO-31 renal) [µM] | TGI (IGROV1 ovarian) [µM] | TGI (CAKI-1 renal) [µM] | TGI (786-0 renal) [µM] | TGI (M14 melanoma) [µM] | TGI (BT-549 breast) [µM] | TGI (SK-OV-3 ovarian) [µM] | TGI (MALME-3M melanoma) [µM] | TGI (NCI-H522 lung) [µM] | TGI (SNB-19 CNS) [µM] | TGI (RXF 393 renal) [µM] | TGI (OVCAR-5 ovarian) [µM] | TGI (EKVX NSCLC) [µM] | TGI (KM12 colon) [µM] | TGI (TK-10 renal) [µM] | TGI (UACC-257 melanoma) [µM] | TGI (OVCAR-3 ovarian) [µM]
Cc1nc2c(o1)C(=O)c1ccccc1C2=Nc1ccc(N2CCOCC2)cc1 | 99.8 | 26.5 | 23.6 | 10.2 | 30.4 | 42.7 | 61 | 3.27 | 5.73 | > 100 | 3.25 | 7 | 36.9 | 2.97 | 33.6 | 17.4 | 66.8 | 99.1 | 4.64 | 5.12
Cc1ccc(C)c2c1CC(Cc1ccccc1C(=O)O)C2=O (stereo not given) | > 100 | > 100 | > 100 | > 100 | > 100 | > 100 | > 100 | > 100 | > 100 | > 100 | > 100 | > 100 | > 100 | > 100 | > 100 | > 100 | > 100 | > 100 | > 100 | > 100
CC(=O)OCC(OC(C)=O)C(OC(C)=O)C(OC(C)=O)C(C=NN(C(C)=O)S(=O)(=O)c1ccc(/C=C2\NC(=O)NC2=O)cc1)OC(C)=O (stereo not given) | > 100 | > 100 | > 100 | > 100 | > 100 | > 100 | > 100 | > 100 | > 100 | > 100 | > 100 | > 100 | > 100 | > 100 | > 100 | > 100 | > 100 | > 100 | > 100 | > 100
COC(=O)/C=C\C(C#N)(C#N)N=Cc1ccc(Br)s1 | 34.4 | 5.53 | 40.2 | 7.18 | 31.9 | 5.94 | 12.9 | 8.86 | 16.8 | 33.4 | 4.27 | 3.33 | 21.9 | 4.87 | 31.5 | 26.4 | 32.6 | 6.65 | 28.6 | 23.3
CN1CCN(CCCCN2c3ccccc3Sc3cc(N=[N+]=[N-])ccc32)CC1 | 2.92 | 3.47 | 22.4 | 3.76 | 4.26 | 5.32 | 3.03 | 3.28 | 21.9 | 22 | 3.28 | 3.31 | 10.8 | 9.83 | 25.8 | 15.1 | 3.48 | 3.43 | 3.89 | 6.53
